The METLIN SMRT retention time set (Domingo-Almenara et al. 2019)

Test: gradient 5% acetonitrile 3 min, to 50% in 2 min, to 85% in 15 min, held 3 min, 100 µL/min
Conditions: column: Zorbax Extend-C18 2.1 x 50 mm; eluents: water / acetonitrile, 0.1% formic acid
Outline: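 Retention time was recorded from adduct peaks, which were picked computationally and each inspected manually. Pure standards ran in mixtures of ~100 molecules on HPLC coupled to a quadrupole time-of-flight mass spectrometer, in positive and negative ionization mode, through a Zorbax Extend-C18 column (2.1 × 50 mm, 1.8 μm) at 100 μL/min. Eluents were water and acetonitrile, each with 0.1% formic acid.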

RP-LC retention time | Structure (SMILES)
805 s | CSc1ccc(CNC(=O)Cn2cc(-c3nnco3)c3ccccc32)cc1
618 s | O=C(Cn1cnc2c(nc3n2CCCCC3)c1=O)NCc1ccco1
982 s | COc1ccc(-n2ccc(=O)c(-c3nc(-c4ccc(OC(C)C)cc4)no3)n2)cc1
685 s | CCCNC(=O)C1CCN(c2ccc(SCC(=O)Nc3ccc(C)c(C)c3)nn2)CC1
570 s | CCC(CN1CCOCC1)Nc1nc(-c2ccc(OC)cc2)nc2ccccc12 (centres undefined)
739 s | C=C(C)Cn1c(C(C)(C)C)cn2c3c(=O)n(C)c(=O)n(C)c3nc12
805 s | CCN1C(=O)c2cccnc2Sc2cc(C(=O)NCc3ccc(F)cc3)ccc21
788 s | COc1cccc(OCC2c3ccsc3CCN2C(=O)CN(CC2CCCO2)C(C)=O)c1 (centres undefined)
825 s | CC(C)CCNC(=O)c1cn2cc(Cl)ccc2n1
722 s | CCn1c(=O)c(C(=O)NCCN(C)C2CCCCC2)nc2cccnc21
695 s | Cc1cccc(NC(=O)Nc2c(-c3ccc(F)cc3)nc3ccccn23)c1
633 s | CNC(=O)c1ccc(-c2nc3cc(NS(=O)(=O)c4ccccc4Cl)ccc3n2C)cc1
585 s | COCc1ncc(C)n1CC1CN(C(=O)c2cccn2C)C1
684 s | O=C(CC1CCCC1)Nc1ccc2c(c1)CCC(=O)N2
750 s | CCCNC(=O)c1ncn2c1C(=O)N(CCC)C(C)(C(=O)NCc1ccc(C)cc1)C2 (centres undefined)
839 s | CC(C)N1CCN(Cc2ccc(C(=O)N3CCN(C4CCCCC4)CC3)cc2)C(=O)C1=O
848 s | Cc1ccc(N2CC(C(=O)Nc3cc(-c4nc(C)cs4)sc3C)CC2=O)cc1 (centres undefined)
741 s | COc1ccc(-c2cc(C(=O)Nc3cc(C)cc(C)c3)nn2C2CCS(=O)(=O)C2)cc1 (centres undefined)
816 s | Cc1ccccc1Cn1c(CN2CCC(C(=O)N(C)Cc3ccco3)CC2)cc2ccccc21
862 s | CC1=C(c2ccc(Cl)cc2)S(=O)(=O)N=C1N1CCCN(C(=O)c2ccccc2)CC1
795 s | CCn1c(C(=O)N2CCC(C(=O)NCc3cccc(OC)c3)CC2)cc2occc21
945 s | CCc1cccc(N2C(=O)CN(S(=O)(=O)CC)CC2(C)C(=O)NCc2ccc(F)cc2)c1 (centres undefined)
890 s | Cc1noc(-c2cc(=O)n(CC(=O)Nc3ccc(F)c(F)c3)c3ccccc23)n1

RP-LC retention time | Structure (SMILES)
640 s | CCOc1ccc(C(=O)NC(C)C(=O)Nc2nc3ccccc3[nH]2)cc1 (centres undefined)
580 s | CS(=O)(=O)N1CCN(CCNC(=O)NC(c2ccccc2)c2ccccc2)CC1
1180 s | CCOc1ccc2nc(N3CCCC(C(=O)N4CCC(Cc5ccccc5)CC4)C3)sc2c1 (centres undefined)
805 s | COc1cccc(S(=O)(=O)N2CCCN(S(=O)(=O)c3ccccc3)CCC(=O)NCC2)c1
978 s | Cc1cccc(C)c1-n1ccn(Cc2nc(-c3ccc(Cl)cc3)no2)c(=O)c1=O
887 s | O=C(COc1ccc(Cl)cc1)Nc1ccccc1NC(=O)c1cccs1
826 s | N#Cc1ccc(C(=O)N2CCN(c3cc(-c4ccc(Cl)cc4)[nH]n3)CC2)cc1
652 s | CCC(C)NC(=O)c1ccc2c(c1)N(C(=O)NC)CC2 (centres undefined)
1200 s | CCc1nc2cc(-c3noc(-c4ccc(C)s4)n3)ccc2o1
700 s | Cc1cc2c(N3CCCC(C(=O)NCc4ccc(F)cc4F)C3)nccc2s1 (centres undefined)
1010 s | CC1CCN(c2cc(-c3noc(C(=O)NC4CCCCCC4)n3)ccn2)CC1
723 s | Cc1ccc(C)c(CS(=O)(=O)N2CCC(CN3CCCC(C)C3)CC2)c1 (centres undefined)
1080 s | CCc1ccc(C(=O)Nc2nnc(SCc3nnc(-c4ccccc4C)o3)s2)cc1
981 s | COc1ccccc1NC(=O)c1cc2c(=O)oc3ccccc3c2n1C
783 s | Cc1noc(-c2nn(C)c3c2CN(C(=O)c2cccc(Br)c2)CC3)n1
634 s | O=C(c1ccc(CS(=O)(=O)c2c(Cl)cccc2Cl)o1)N1CCN(c2ccccn2)CC1
657 s | COC(=O)c1ccc(Cl)cc1NC(=O)N1CCN(CCn2c(C)nc3cccnc32)CC1
727 s | CSc1ccc(NC(=O)c2cn3c(n2)CSCC3)cc1
732 s | CCN1C(=O)Cc2ccccc2C1C(=O)N(C)Cc1ccco1 (centres undefined)
552 s | CS(=O)(=O)N(Cc1ccncc1)C1CN(C(=O)c2ccoc2)C1
722 s | Cc1cc(SCC(=O)N2CCCc3ccccc32)nc(C)n1
567 s | CC(=O)NC(C)C(=O)N1CCC(CCOc2cccnc2)CC1 (centres undefined)
1050 s | COC(=O)c1sccc1NC(=O)N1CCCC1c1nc(-c2ccccc2)no1 (centres undefined)

RP-LC retention time | Structure (SMILES)
725 s | CC(C)N(C(=O)Cn1c(CN(C)C(=O)c2ccco2)nc2ccccc21)c1ccccc1
759 s | Cc1nnc(N2CCCC(C(=O)N3CCN(c4ccccc4)CC3)C2)c2nn(-c3ccccc3)c(C)c12 (centres undefined)
582 s | CCOC(=O)c1cn[nH]c1S(=O)(=O)N1CCN(c2ccccn2)CC1
704 s | Cc1ccc(NC(=O)Nc2cccc(-c3ccc(N4CCOCC4)nn3)c2)cc1
1040 s | Fc1ccc(-c2noc(-c3ccc(N4CCCC4)nc3)n2)cc1
832 s | CCn1cc(S(=O)(=O)Nc2ccc(OC)c(Cl)c2)c2cccnc21
634 s | CCNC(=O)c1n[nH]c2c1CN(C(=O)c1cc(F)cc(F)c1)CC2
795 s | Cc1cc(OCC(O)Cn2c(C3CC3)nc3ccccc32)cc(C)c1Cl (centres undefined)
932 s | O=c1c(NCc2ccccc2Cl)nccn1-c1ccc2c(c1)OCO2
690 s | CC(C)CCNC(=O)C1CCCN(c2ccnc(-c3ccc(F)cc3)n2)C1 (centres undefined)
808 s | COc1ccc(N2CC(c3nc(-c4ccccc4F)no3)CC2=O)cc1OC (centres undefined)
1020 s | COc1ccc(OC)c(NC(=O)Cn2cccc2-c2nnc(-c3ccccc3)o2)c1
813 s | Cc1ccc(C)c(Nc2c(-c3nc(C)no3)cnc3nc(C)ccc23)c1
741 s | O=C(CCC1CCN(S(=O)(=O)c2ccccc2)CC1)N1CCOCC1
1080 s | COc1cccc(Cn2c(=O)c3sccc3n(Cc3nc(-c4cccc(OC)c4)no3)c2=O)c1
1060 s | CCn1cc(-c2nc(C(=O)Nc3cccc(C(=O)OC)c3)cs2)c2cccnc21
817 s | Cc1ccc(NC(=O)C2CCN(S(=O)(=O)c3ccc4c(c3)CCCC(=O)N4)CC2)cc1F
932 s | COc1ccc(OC)c(NC(=O)N2CCCC(C)(C(=O)NCc3ccc(C)cc3)C2)c1 (centres undefined)
912 s | COc1ccc(-c2noc(C3CC(=O)N(c4ccc(F)cc4)C3)n2)cc1 (centres undefined)
828 s | CN(CC(=O)N1CCN(c2ccc(Cl)cc2)CC1)S(=O)(=O)c1ccc2c(c1)CCCC(=O)N2
629 s | O=C(NCCc1ccccc1)N1CCN(C(=O)N2C[C@H]3C[C@H](C2)[C@H]2CCCC(=O)N2C3)CC1
812 s | O=c1c2nnc(SCc3ccc(F)cc3)n2ccn1-c1ccc(F)cc1
875 s | CN(C)c1ccc(-c2noc(CCC(=O)Nc3ccc4c(c3)OCCO4)n2)cc1

RP-LC retention time | Structure (SMILES)
638 s | Cc1ncn(CC(=O)Nc2ccc(F)cc2)c(=O)c1C
710 s | CC(=O)N1CCc2cc(N3CC(C(=O)Nc4cccc(F)c4)CC3=O)ccc21 (centres undefined)
816 s | COc1cccc(-c2nc(Cn3c(C)nc4ccccc4c3=O)no2)c1OC
650 s | Cc1oc(-c2[nH]ncc2C(=O)N(C)C)cc1S(=O)(=O)NC1CCCC1
575 s | CCc1ccc(CN2CCC3(CC2)CC(O)(COC)CCO3)cc1 (centres undefined)
856 s | Cc1nnc(-c2cn(CC(=O)Nc3ccc(Cl)cc3)c3ccccc23)o1
818 s | COc1ccc(Cn2nnc3cc(C(=O)NCc4ccco4)ccc32)cc1
902 s | CCOc1ccc(N2CC(c3nc(-c4ccc(OC)cc4OC)no3)CC2=O)cc1 (centres undefined)
1200 s | CCc1cc(-c2csc(S(=O)(=O)N3CCN(c4cccc(Cl)c4)CC3)c2)on1
861 s | CCCNC(=O)N1CC(Oc2ccc(-c3nc(-c4ccccc4)no3)cc2)C1
838 s | O=C1/C(=C/c2cccnc2)Oc2cc(OCc3ccc([N+](=O)[O-])cc3)ccc21
815 s | Cc1ccc(N2C=NS(=O)(=O)c3cccnc32)cc1F
980 s | CN(CC1(C)CCOCC1)S(=O)(=O)c1cccc(C(F)(F)F)c1
643 s | Cc1nc2ccccn2c(=O)c1CCN1CCC(C(=O)c2ccc(F)cc2)CC1
1020 s | CC1=NS(=O)(=O)N(C)C=C1C(=O)OCc1nc(-c2cccc(C)c2)no1
794 s | Cn1cc(CN2CCC(C(=O)N3CCN(c4ccccc4F)CC3)CC2)c2cc(Cl)ccc21
722 s | Cc1cc2nn(CC(=O)NCC3CCCO3)c(=O)n2c(Nc2ccc(F)cc2)n1 (centres undefined)
719 s | c1ccc(CSc2nc3ncncc3[nH]2)cc1
1030 s | CCOCCCNC(=O)c1cn(CC)nc1S(=O)(=O)N1CCN(c2cccc(Cl)c2)CC1
662 s | CS(=O)(=O)N1CCC(C(=O)Nc2sccc2C#N)CC1
